# Tests used:
# Assay in all cases: relative viability (nuclei count vs DMSO), 5 days (fraction); higher = more cells survive
# COR-L 105 = system: COR-L 105
# Procedure, shortened: (§1)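 Relative viability was taken as the ratio of nuclei in treated wells to nuclei in vehicle wells. Lung cancer cell lines in 1536-well plates received compounds by pin tool one day after seeding, either one drug alone or a fixed anchor-drug dose plus five library-drug doses (not always all listed) in √10 steps. Nuclei were counted on 4× images after 5 days of treatment, and values are medians of duplicate plates.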
# COR-L23 = system: COR-L23
# Procedure, shortened: as §1
# HARA = system: HARA
# Procedure, shortened: as §1
# HCC-15 = system: HCC-15
# Procedure, shortened: as §1
# HOP-62 = system: HOP-62
# Procedure, shortened: as §1
# NCI-H1355 = system: NCI-H1355
# Procedure, shortened: as §1
# NCI-H1395 = system: NCI-H1395
# Procedure, shortened: as §1
# NCI-H1734 = system: NCI-H1734
# Procedure, shortened: as §1
# NCI-H1755 = system: NCI-H1755
# Procedure, shortened: as §1
# NCI-H1792 = system: NCI-H1792
# Procedure, shortened: as §1
# NCI-H1793 = system: NCI-H1793
# Procedure, shortened: as §1
# NCI-H1993 = system: NCI-H1993
# Procedure, shortened: as §1
# NCI-H2009 = system: NCI-H2009
# Procedure, shortened: as §1
# NCI-H2228 = system: NCI-H2228
# Procedure, shortened: as §1
# NCI-H2347 = system: NCI-H2347
# Procedure, shortened: as §1
# NCI-H358 = system: NCI-H358
# Procedure, shortened: as §1
# NCI-H647 = system: NCI-H647
# Procedure, shortened: as §1
# NCI-H838 = system: NCI-H838
# Procedure, shortened: as §1
# SK-MES-1 = system: SK-MES-1
# Procedure, shortened: as §1
# UMC-11 = system: UMC-11
# Procedure, shortened: as §1
structure (smiles),measurement,setting,value
O=c1cc(-c2cccc3c2Sc2ccccc2S3)oc(N2CCOCC2)c1 + C[C@]1(O)C[C@@H](c2nc(-c3ccc4ccc(-c5ccccc5)nc4c3)c3c(N)nccn32)C1 [Linsitinib] (partner 1 µM),relative viability,COR-L 105; first compound 0.08 µM,0.771
same,relative viability,COR-L 105; first compound 0.253 µM,1.11
same,relative viability,COR-L 105; first compound 0.8 µM,0.823
same,relative viability,COR-L 105; first compound 2.53 µM,0.958
same,relative viability,COR-L 105; first compound 8 µM,1.07
same,relative viability,COR-L23; first compound 0.08 µM,0.958
same,relative viability,COR-L23; first compound 0.253 µM,0.965
same,relative viability,COR-L23; first compound 0.8 µM,1.13
same,relative viability,COR-L23; first compound 2.53 µM,1.08
same,relative viability,COR-L23; first compound 8 µM,1.04
same,relative viability,HARA; first compound 0.08 µM,1.01
same,relative viability,HARA; first compound 0.253 µM,1.2
same,relative viability,HARA; first compound 0.8 µM,1.08
same,relative viability,HARA; first compound 2.53 µM,0.948
same,relative viability,HARA; first compound 8 µM,0.743
same,relative viability,HCC-15; first compound 0.08 µM,0.958
same,relative viability,HCC-15; first compound 0.253 µM,0.93
same,relative viability,HCC-15; first compound 0.8 µM,0.904
same,relative viability,HCC-15; first compound 2.53 µM,0.844
same,relative viability,HCC-15; first compound 8 µM,0.88
same,relative viability,HOP-62; first compound 0.08 µM,1.04
same,relative viability,HOP-62; first compound 0.253 µM,1.01
same,relative viability,HOP-62; first compound 0.8 µM,1.01
same,relative viability,HOP-62; first compound 2.53 µM,0.789
same,relative viability,HOP-62; first compound 8 µM,0.917
same,relative viability,NCI-H1355; first compound 0.08 µM,0.853
same,relative viability,NCI-H1355; first compound 0.253 µM,0.937
same,relative viability,NCI-H1355; first compound 0.8 µM,0.818
same,relative viability,NCI-H1355; first compound 2.53 µM,0.712
same,relative viability,NCI-H1355; first compound 8 µM,0.689
same,relative viability,NCI-H1395; first compound 0.08 µM,1.25
same,relative viability,NCI-H1395; first compound 0.253 µM,1.06
same,relative viability,NCI-H1395; first compound 0.8 µM,1.26
same,relative viability,NCI-H1395; first compound 2.53 µM,0.941
same,relative viability,NCI-H1395; first compound 8 µM,1.07
same,relative viability,NCI-H1734; first compound 0.08 µM,0.854
same,relative viability,NCI-H1734; first compound 0.253 µM,1.16
same,relative viability,NCI-H1734; first compound 0.8 µM,1
same,relative viability,NCI-H1734; first compound 2.53 µM,0.876
same,relative viability,NCI-H1734; first compound 8 µM,1.13
same,relative viability,NCI-H1755; first compound 0.08 µM,1.03
same,relative viability,NCI-H1755; first compound 0.253 µM,1.1
same,relative viability,NCI-H1755; first compound 0.8 µM,0.978
same,relative viability,NCI-H1755; first compound 2.53 µM,1.02
same,relative viability,NCI-H1755; first compound 8 µM,0.936
same,relative viability,NCI-H1792; first compound 0.253 µM,0.61
same,relative viability,NCI-H1792; first compound 0.8 µM,0.502
same,relative viability,NCI-H1792; first compound 2.53 µM,0.535
same,relative viability,NCI-H1792; first compound 8 µM,0.516
same,relative viability,NCI-H1793; first compound 0.08 µM,0.674
same,relative viability,NCI-H1793; first compound 0.253 µM,1.19
same,relative viability,NCI-H1793; first compound 0.8 µM,0.992
same,relative viability,NCI-H1793; first compound 2.53 µM,0.821
same,relative viability,NCI-H1793; first compound 8 µM,0.919
same,relative viability,NCI-H1993; first compound 0.08 µM,0.739
same,relative viability,NCI-H1993; first compound 0.253 µM,0.683
same,relative viability,NCI-H1993; first compound 0.8 µM,0.687
same,relative viability,NCI-H1993; first compound 2.53 µM,0.799
same,relative viability,NCI-H1993; first compound 8 µM,0.859
same,relative viability,NCI-H2009; first compound 0.08 µM,1.17
same,relative viability,NCI-H2009; first compound 0.253 µM,1.22
same,relative viability,NCI-H2009; first compound 0.8 µM,1.19
same,relative viability,NCI-H2009; first compound 2.53 µM,1.12
same,relative viability,NCI-H2009; first compound 8 µM,1.11
same,relative viability,NCI-H2228; first compound 0.08 µM,0.545
same,relative viability,NCI-H2228; first compound 0.253 µM,0.588
same,relative viability,NCI-H2228; first compound 0.8 µM,0.826
same,relative viability,NCI-H2228; first compound 2.53 µM,0.592
same,relative viability,NCI-H2228; first compound 8 µM,0.63
same,relative viability,NCI-H2347; first compound 0.08 µM,0.918
same,relative viability,NCI-H2347; first compound 0.253 µM,1.15
same,relative viability,NCI-H2347; first compound 0.8 µM,0.998
same,relative viability,NCI-H2347; first compound 2.53 µM,1.02
same,relative viability,NCI-H2347; first compound 8 µM,1.11
same,relative viability,NCI-H358; first compound 0.08 µM,0.618
same,relative viability,NCI-H358; first compound 0.253 µM,0.665
same,relative viability,NCI-H358; first compound 0.8 µM,0.79
same,relative viability,NCI-H358; first compound 2.53 µM,0.707
same,relative viability,NCI-H358; first compound 8 µM,0.784
same,relative viability,NCI-H647; first compound 0.08 µM,1.3
same,relative viability,NCI-H647; first compound 0.253 µM,1.16
same,relative viability,NCI-H647; first compound 0.8 µM,1.16
same,relative viability,NCI-H647; first compound 2.53 µM,1.03
same,relative viability,NCI-H647; first compound 8 µM,1.35
same,relative viability,NCI-H838; first compound 0.08 µM,0.958
same,relative viability,NCI-H838; first compound 0.253 µM,1.49
same,relative viability,NCI-H838; first compound 0.8 µM,0.821
same,relative viability,NCI-H838; first compound 2.53 µM,0.859
same,relative viability,NCI-H838; first compound 8 µM,0.899
same,relative viability,SK-MES-1; first compound 0.08 µM,1.12
same,relative viability,SK-MES-1; first compound 0.253 µM,1.16
same,relative viability,SK-MES-1; first compound 0.8 µM,0.956
same,relative viability,SK-MES-1; first compound 2.53 µM,1.08
same,relative viability,SK-MES-1; first compound 8 µM,1.05
same,relative viability,UMC-11; first compound 0.08 µM,1.16
same,relative viability,UMC-11; first compound 0.253 µM,1.17
same,relative viability,UMC-11; first compound 0.8 µM,1.18
same,relative viability,UMC-11; first compound 2.53 µM,1.06
same,relative viability,UMC-11; first compound 8 µM,1.23
